Measured values taken from patent publication US7419966B2, “[5-carboxamido or 5-fluoro]-[2′,3′-unsaturated or 3′-modified]-pyrimidine nucleosides” (Emory University, priority 1995, dated 2008).
Read-outs that look alike come from different tables or passages of the source.

Experiments:
Format in all cases: cell-based
various cell lines = test: Toxicity in various cell lines (PBM, CEM, Vero); conditions: PBM, CEM and Vero cells
SIVSMM = test: Anti-SIV activity in PBMC; conditions: Table 3; SIVSMM; read-out: Anti-SIV in PBMC EC50
[1] = tested on: hepatitis B virus in transfected HepG-2 (2.2.15) cells; test: Anti-HBV activity in 2.2.15 cell cultures (HBV virion DNA and replicative intermediates); conditions: for EC50 / EC90: day 9
Procedure: The ability of the active compounds to inhibit the growth of virus in 2.2.15 cell cultures (HepG2 cells transformed with hepatitis virion) can be evaluated as described in detail below.
A summary and description of the assay for antiviral effects in this culture system and the analysis of HBV DNA has been described (Korba and Milman, 1991, Antiviral Res., 15:217). The antiviral evaluations were performed on two separate passages of cells. All wells, in all plates, were seeded at the same density and at the same time.
Due to the inherent variations in the levels of both intracellular and extracellular HBV DNA, only depressions greater than 3.5-fold (for HBV virion DNA) or 3.0-fold (for HBV DNA replication intermediates) from the average levels for these HBV DNA forms in untreated cells are considered to be statistically significant [P<0.05]. The levels of integrated HBV DNA in each cellular DNA preparation (which remain constant on a per cell basis in these experiments) were used to calculate the levels of intracellular HBV DNA forms, thereby ensuring that equal amounts of cellular DNA were compared between separate samples.
Typical values for extracellular HBV virion DNA in untreated cells ranged from 50 to 150 pg/ml culture medium (average of approximately 76 pg/ml). Intracellular HBV DNA replication intermediates in untreated cells ranged from 50 to 100 pg/μg cell DNA (average approximately 74 pg/μg cell DNA). In general, depressions in the levels of intracellular HBV DNA due to treatment with antiviral compounds are less pronounced, and occur more slowly, than depressions in the levels of HBV virion DNA (Korba and Milman, 1991, Antiviral Res., 15:217).

[2] = tested on: 2.2.15 cells (HepG2 cells transformed with hepatitis virion); test: Toxicity in 2.2.15 cells by neutral red dye uptake; conditions: Table 4; 2.2.15 cells; read-out: Cytotoxicity IC50 ± SD
Procedure: (§1) Toxicity analyses were performed to assess whether any observed antiviral effects were due to a general effect on cell viability. The method used herein was the measurement of the uptake of neutral red dye, a standard and widely used assay for cell viability in a variety of virus-host systems, including HSV and HIV. Toxicity analyses were performed in 96-well flat bottomed tissue culture plates. Cells for the toxicity analyses were cultured and treated with test compounds with the same schedule as described for the antiviral evaluations below. Each compound was tested at 4 concentrations, each in triplicate cultures (wells “A”, “B”, and “C”). Uptake of neutral red dye was used to determine the relative level of toxicity. The absorbance of internalized dye at 510 nm (Asin) was used for the quantitative analysis. Values are presented as a percentage of the average Asin values in 9 separate cultures of untreated cells maintained on the same 96-well plate as the test compounds. Dye uptake in the 9 control cultures on plate 5 ranged from 91.6% to 110.4%, and on plate 6 from 96.6% to 109%.

HIV-1 (strain LAV) = test: Anti-HIV-1 activity in PHA-stimulated human PBM cells (reverse transcriptase readout); conditions: for EC50: Table 3, HIV-1LAI, estimated 10% error factor, read-out: Anti-HIV-1 in PBMC EC50; for antiviral activity against HIV, in words: text b71, b85
Procedure: The ability of nucleosides to inhibit HIV can be measured by various experimental techniques. The technique used herein, and described in detail below, measures the inhibition of viral replication in phytohemagglutinin (PHA) stimulated human peripheral blood mononuclear (PBM) cells infected with HIV-1. (strain LAV). The amount of virus produced is determined by measuring the virus-coded reverse transcriptase enzyme. The amount of enzyme produced is proportional to the amount of virus produced.
Three-day-old phytohemagglutinin-stimulated PBM cells (10^6 cells/ml) from hepatitis B and HIV-1 seronegative healthy donors were infected with HIV-1 (strain LAV) at a concentration of about 100 times the 50% tissue culture infectious dose (TICD 50) per ml and cultured in the presence and absence of various concentrations of antiviral compounds.
Approximately one hour after infection, the medium, with the compound to be tested (2 times the final concentration in medium) or without compound, was added to the flasks (5 ml; final volume 10 ml). AZT was used as a positive control.
The cells were exposed to the virus (about 2×10^5 dpm/ml, as determined by reverse transcriptase assay) and then placed in a CO2 incubator. HIV-1 (strain LAV) was obtained from the Center for Disease Control, Atlanta, Ga. The methods used for culturing the PBM cells, harvesting the virus and determining the reverse transcriptase activity were those described by McDougal et al. (J. Immun. Meth. 76, 171-183, 1985) and Spira et al. (J. Clin. Meth. 25, 97-99, 1987), except that fungizone was not included in the medium (see Schinazi, et al., Antimicrob. Agents Chemother. 32, 1784-1787 (1988); Id., 34:1061-1067 (1990)).
On day 6, the cells and supernatant were transferred to a 15 ml tube and centrifuged at about 900 g for 10 minutes. Five ml of supernatant were removed and the virus was concentrated by centrifugation at 40,000 rpm for 30 minutes (Beckman 70.1 Ti rotor). The solubilized virus pellet was processed for determination of the levels of reverse transcriptase. Results are expressed in dpm/ml of sampled supernatant. Virus from smaller volumes of supernatant (1 ml) can also be concentrated by centrifugation prior to solubilization and determination of reverse transcriptase levels.

Vero cells = test: Toxicity in Vero cells; conditions: Table 3
[3] = tested on: uninfected human PBM cells; test: Toxicity in mitogen-stimulated uninfected human PBM cells (cell count, trypan blue exclusion); conditions: Table 3
Procedure: Mitogen stimulated uninfected human PBM cells (3.8×10^5 cells/ml) were cultured in the presence and absence of drug under similar conditions as those used for the antiviral assay described above. The cells were counted after 6 days using a hemacytometer and the trypan blue exclusion method, as described by Schinazi et al., Antimicrobial Agents and Chemotherapy, 22(3), 499 (1982). […]

CEM cells = test: Toxicity in CEM cells; conditions: Table 3
HIV-2ROD2 = test: Anti-HIV-2 activity in PBMC; conditions: Table 3; HIV-2ROD2; read-out: Anti-HIV-2 in PBMC EC50
[4] = Toxicity in 2.2.15 cells by neutral red dye uptake; conditions: human, 2.2.15 cells (HepG2 cells transformed with hepatitis virion), 2.2.15 cells, read-out: Cytotoxicity IC50 ± SD
Procedure: as §1

[5] = Table 4, extracellular DNA, untreated control 88 pg/ml, read-out: HBV virion EC50 ± SD
[6] = Table 4, extracellular DNA, untreated control 88 pg/ml, read-out: HBV virion EC90 ± SD
[7] = Table 4, replicative intermediates (intracellular DNA), untreated control 79 pg/μg cell DNA, read-out: HBV RI EC50 ± SD
[8] = Table 4, replicative intermediates (intracellular DNA), untreated control 79 pg/μg cell DNA, read-out: HBV RI EC90 ± SD

| Structure (SMILES) | toxicity, in words (various cell lines) | EC50 (SIVSMM) | EC50 [1, 5] | EC90 [1, 6] | EC50 [1, 7] | EC90 [1, 8] | IC50 [2] | EC50 (HIV-1 (strain LAV)) | antiviral activity against HIV, in words (HIV-1 (strain LAV)) | IC50 (Vero cells) | IC50 [3] | IC50 (CEM cells) | EC50 (HIV-2ROD2) | Selectivity Index IC50/EC90 RI ([1]; Table 2) | Selectivity Index IC50/EC90 Virion ([1]; Table 2) | IC50 ([4]; Table 2) | further results |
| --- | --- | --- | --- | --- | --- | --- | --- | --- | --- | --- | --- | --- | --- | --- | --- | --- | --- |
| Nc1nc(=O)n([C@@H]2C=C[C@H](CO)O2)cc1F [L-F-D4C, β-L-2′,3′-didehydro-2′,3′-dideoxy-5-fluoro-cytidine] | relatively nontoxic | 0.00015 µM | 0.28 ± 0.03 µM | 0.41 ± 0.04 µM | 0.33 ± 0.04 µM | 0.75 ± 0.07 µM | > 3 µM | 0.0015 µM | significant activity against HIV | 40.3 µM | > 100 µM | 7.3 µM | 0.0006 µM |  |  |  |  |
| Nc1ccn([C@@H]2C=C[C@H](CO)O2)c(=O)n1 [L-D4C, β-L-2′,3′-didehydro-2′,3′-dideoxy-cytidine] | relatively nontoxic | 0.048 µM | 0.15 ± 0.02 µM | 0.33 ± 0.04 µM | 0.91 ± 0.09 µM | 2.3 ± 0.3 µM | 1040 ± 92 µM | 0.0058 µM | significant activity against HIV | 10.8 µM | > 100 µM | 0.73 µM | 0.033 µM |  |  |  |  |
| Nc1nc(=O)n([C@@H]2CS[C@H](CO)O2)cc1F [β-L-FTC, (−)-cis-2-hydroxymethyl-5-(5-fluorocytosin-1-yl)-1,3-oxathiolane, reference compound] |  |  |  |  |  |  |  |  |  |  |  |  |  | 1,913 | 678 | 746 ± 33 µM | EC50 ([1]; Hepatitis B virus, HepG2 2.2.15, 216 h, Table 2, extracellular DNA, untreated control 102 pg/ml, read-out: HBV virion EC50 ± SD): 0.04 ± 0.006 µM; EC90 ([1]; Hepatitis B virus, HepG2 2.2.15, 216 h, Table 2, extracellular DNA, untreated control 102 pg/ml, read-out: HBV virion EC90 ± SD): 1.1 ± 0.1 µM; EC50 ([1]; Hepatitis B virus, HepG2 2.2.15, 216 h, Table 2, replicative intermediates (intracellular DNA), untreated control 87 pg/μg cell DNA, read-out: HBV RI EC50 ± SD): 0.16 ± 0.01 µM; EC90 ([1]; Hepatitis B virus, HepG2 2.2.15, 216 h, Table 2, replicative intermediates (intracellular DNA), untreated control 87 pg/μg cell DNA, read-out: HBV RI EC90 ± SD): 0.39 ± 0.22 µM |
| Nc1ccn([C@H]2CC[C@@H](CO)O2)c(=O)n1 [β-D-DDC, 2′,3′-dideoxycytidine, reference compound] |  |  |  |  |  |  |  |  |  |  |  |  |  | 18 | 26 | 236 ± 21 µM | EC50 ([1]; Hepatitis B virus, HepG2 2.2.15, 216 h, read-out: HBV RI EC50 ± SD, Table 2, replicative intermediates (intracellular DNA), untreated control 87 pg/μg cell DNA): 3.4 ± 0.4 µM; EC50 ([1]; Hepatitis B virus, HepG2 2.2.15, 216 h, read-out: HBV RI EC50 ± SD, Table 4, replicative intermediates (intracellular DNA), untreated control 79 pg/μg cell DNA): 2.4 ± 0.3 µM; EC90 ([1]; Hepatitis B virus, HepG2 2.2.15, 216 h, read-out: HBV RI EC90 ± SD, Table 2, replicative intermediates (intracellular DNA), untreated control 87 pg/μg cell DNA): 13 ± 1.4 µM; EC90 ([1]; Hepatitis B virus, HepG2 2.2.15, 216 h, read-out: HBV RI EC90 ± SD, Table 4, replicative intermediates (intracellular DNA), untreated control 79 pg/μg cell DNA): 12 ± 1.1 µM; EC50 ([1]; Hepatitis B virus, HepG2 2.2.15, 216 h, read-out: HBV virion EC50 ± SD, Table 2, extracellular DNA, untreated control 102 pg/ml): 1.4 ± 0.2 µM; EC50 ([1]; Hepatitis B virus, HepG2 2.2.15, 216 h, read-out: HBV virion EC50 ± SD, Table 4, extracellular DNA, untreated control 88 pg/ml): 1.5 ± 0.2 µM; EC90 ([1]; Hepatitis B virus, HepG2 2.2.15, 216 h, read-out: HBV virion EC90 ± SD, Table 2, extracellular DNA, untreated control 102 pg/ml): 9.6 ± 1.1 µM; EC90 ([1]; Hepatitis B virus, HepG2 2.2.15, 216 h, read-out: HBV virion EC90 ± SD, Table 4, extracellular DNA, untreated control 88 pg/ml): 8.2 ± 0.8 µM; Selectivity Index IC50/EC90 RI ([1]; Table 4): 22; Selectivity Index IC50/EC90 Virion ([1]; Table 4): 37; IC50 ([4]; Table 4): 259 ± 18 µM |
